Test results as given in PMC10473532 (PLOS ONE, 2023).
Read-outs that look alike come from different tables or passages of the source.

Tests used:
human β3-AR = human β3-AR (Homo sapiens, UniProt P13945); test: cAMP accumulation in CHO-K1 cells expressing human β3-AR; settings: for EC50: EC50 β3-AR; for β3-AR selectivity vs β1-AR / β3-AR selectivity vs β2-AR: comparison between EC50 values; for cAMP activity at Cmax,u / cAMP activity at Cmin,u: from dose-response curve, β3-AR cells TF 0.025 μg/well;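 as to all read-outs here: CHO-K1 cells transiently transfected with a β-AR expression plasmid, cAMP assayed roughly 24 h post-transfection, values derived from agonist concentration–response curves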
Chain of human β3-AR (P13945 whole entry): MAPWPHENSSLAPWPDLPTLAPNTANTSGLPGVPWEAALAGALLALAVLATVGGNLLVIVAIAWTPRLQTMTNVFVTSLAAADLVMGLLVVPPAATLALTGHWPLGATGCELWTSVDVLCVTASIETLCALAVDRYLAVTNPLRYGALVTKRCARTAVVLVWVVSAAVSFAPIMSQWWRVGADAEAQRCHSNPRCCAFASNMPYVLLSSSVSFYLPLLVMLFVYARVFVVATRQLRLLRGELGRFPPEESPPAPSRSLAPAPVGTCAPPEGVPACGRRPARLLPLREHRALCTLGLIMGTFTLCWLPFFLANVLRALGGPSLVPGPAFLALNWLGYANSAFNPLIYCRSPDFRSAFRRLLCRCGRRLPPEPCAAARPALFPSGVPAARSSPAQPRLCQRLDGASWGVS
Method: (§1) Chinese hamster ovary (CHO)-K1 cells (DS Pharma Biomedical Co., Ltd., Osaka, Japan) were cultured in Ham’s F-12 medium containing 10% fetal bovine serum under 5% CO2 at 37°C. For cAMP assay, 2×10^5 cells/mL were inoculated onto a 96-well plate at 100 μL/well. […] The cells were cultured for about 24 h and used for β-AR transfection (see below). The DNA sequences encoding β1-AR (P08588.2), β2-AR (NP_000015.1), or β3-AR (NP_000016.1) were cloned into a pCI-Neo expression vector (Promega, WI, USA). CHO-K1 cells expressing β1-AR, β2-AR, or β3-AR were constructed by transfection with the appropriate plasmid DNA (β1-, β2-, or β3-AR) using Lipofectamine 2000 (Life Technologies Japan Ltd., Tokyo, Japan), according to the manufacturer’s instructions. […] Lipofectamine was diluted with Opti-MEM (0.5 μL Lipofectamine/25 μL Opti-MEM) and incubated for 5 min at room temperature. Solutions containing plasmid DNA and Lipofectamine, respectively, were mixed in equal amounts and incubated for 20 min at room temperature. […] The transfected CHO-K1 cells were then cultured for about 24 h and used for the following experiments. Similar experiments were performed after reducing the amounts of transfected plasmid DNA to 0.05 and 0.025 μg.
(§2) Cells that had been cultured for about 24 h after transfection were subjected to cAMP assay.
(§3) In the cAMP assay, the half-maximal effective concentration (EC50) value was calculated for each agonist based on its concentration–response curve using GraphPad Prism 6.0 nonlinear regression analysis.

[1] = tested on: isolated rat bladder strips; set-up: method as in PMID 24213882; settings: cited from earlier work
[2] = unbound plasma concentrations at once-daily 50 mg clinical dose; type: in vivo, human; settings: for Cmax,u (unbound maximum plasma concentration): calculated from Cmax and plasma-protein-binding rate; for Cmin,u (unbound minimum plasma concentration): calculated from Cmin and plasma-protein-binding rate
human β2-AR = human β2-AR (Homo sapiens, UniProt P07550, E27Q/G16R); test: cAMP accumulation in CHO-K1 cells expressing human β2-AR; settings: for Intrinsic activity β2-AR: isoproterenol max = 1.00
Method: as §1, §2, §3

human β1-AR = target: T1, human β1-AR (Homo sapiens, UniProt P08588); test: cAMP accumulation in CHO-K1 cells expressing human β1-AR; type: cell-based;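 also: cells transiently transfected with a β1-AR expression plasmid, seeded in 96-well plates and assayed for cAMP about 24 h after transfection across agonist concentration–response curves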
T1 construct: expressed in transfected cells; host or cells: CHO-K1 cells, transient transfection with pCI-Neo plasmid (Lipofectamine 2000)
T1 sequence (P08588 whole entry): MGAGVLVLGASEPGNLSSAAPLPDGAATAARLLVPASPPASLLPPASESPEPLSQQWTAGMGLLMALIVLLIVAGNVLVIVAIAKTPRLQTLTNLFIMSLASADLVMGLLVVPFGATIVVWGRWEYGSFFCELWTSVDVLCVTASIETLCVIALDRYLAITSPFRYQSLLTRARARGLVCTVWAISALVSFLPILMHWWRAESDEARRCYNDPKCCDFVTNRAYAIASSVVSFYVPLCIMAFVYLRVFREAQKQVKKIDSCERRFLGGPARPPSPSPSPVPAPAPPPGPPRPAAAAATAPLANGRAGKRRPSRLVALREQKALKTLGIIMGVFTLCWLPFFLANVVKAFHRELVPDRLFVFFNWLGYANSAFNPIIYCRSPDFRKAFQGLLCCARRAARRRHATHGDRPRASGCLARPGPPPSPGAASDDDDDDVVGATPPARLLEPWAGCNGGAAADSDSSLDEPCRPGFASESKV
Method: as §1, §2, §3

β1-AR = target: β1-AR; set-up: method as in PMID 22430195; settings: binding assays; read-out: inhibition constant (Ki) β1-AR; cited from earlier work
β3-AR = settings: recent study comparing vibegron and mirabegron; cited from earlier work
β2-AR = target: β2-AR; set-up: method as in PMID 22430195; settings: binding assays; read-out: inhibition constant (Ki) β2-AR; cited from earlier work
[3] = 52-week, cited from earlier work
[4] = therapeutic doses, clinical trials; cited from earlier work
[5] = TF 0.05 μg/well, isoproterenol max = 1.00
[6] = TF 0.1 μg/well, 347 fmol/mg, concentration producing 50% of the maximal response induced by isoproterenol
[7] = EC50 β2-AR, CHO-K1, TF 0.1 μg/well plasmid DNA, cAMP accumulation
[8] = CHO-K1, TF 0.1 μg/well plasmid DNA, cAMP accumulation, read-out: EC50 β1-AR
[9] = TF 0.025 μg/well, isoproterenol max = 1.00
[10] = TF 0.025 μg/well, read-out: EC50 β1-AR
[11] = TF 0.05 μg/well, read-out: EC50 β1-AR
[12] = TF 0.1 μg/well, maximal response of isoproterenol = 1.00
[13] = CHO-K1, TF 0.1 μg/well plasmid DNA, cAMP accumulation

CC(C)NC[C@H](O)c1ccc(O)c(O)c1 [Isoproterenol, (–)-isoprenaline (+)-bitartrate]
Iso50 (human β3-AR; TF 0.025 μg/well, 116 fmol/mg): 78.0 ± 10.9 nM
Iso50 (human β3-AR; TF 0.05 μg/well, 222 fmol/mg): 37.9 ± 6.40 nM
Intrinsic activity β3-AR (human β3-AR; [5]): (0.96 ± 0.02)
Iso50 (human β3-AR; [6]): 11.8 ± 1.78 nM

Nc1nc(CC(=O)Nc2ccc(CCNC[C@H](O)c3ccccc3)cc2)cs1 [Mirabegron, mirabegron]
attenuation of bladder relaxant effect after pretreatment, washout and fresh addition [1]: did not produce such attenuation
Cmax,u (unbound maximum plasma concentration) [2]: 20 nM
Cmin,u (unbound minimum plasma concentration) [2]: 3 nM
EC50 (human β2-AR; [7]): 0.57 ± 0.235 µM
EC50 (human β2-AR; EC50 β2-AR, TF 0.025 μg/well): > 10 µM
EC50 (human β2-AR; EC50 β2-AR, TF 0.05 μg/well): > 10 µM
Intrinsic activity β2-AR (human β2-AR; TF 0.05 μg/well): (0.31 ± 0.05)
EC50 (human β1-AR; [8]): 0.594 ± 0.122 µM
Intrinsic activity β1-AR (human β1-AR; [9]): (0.25 ± 0.03)
EC50 (human β1-AR; [10]): > 10 µM
Intrinsic activity β1-AR (human β1-AR; [5]): (0.38 ± 0.02)
EC50 (human β1-AR; [11]): > 10 µM
Intrinsic activity β1-AR (human β1-AR; [12]): (0.59 ± 0.02)
Ki (β1-AR): 383 nM
IA (Emax) (β3-AR): 80.4%
Ki (β2-AR): 977 nM
EC50 (human β3-AR; [13]): 1.15 ± 0.24 nM
EC50 (human β3-AR; TF 0.025 μg/well): 4.17 ± 0.89 nM
EC50 (human β3-AR; TF 0.05 μg/well): 2.81 ± 0.6 nM
Iso50 (human β3-AR; TF 0.025 μg/well, 116 fmol/mg): 26.9 ± 7.51 nM
Iso50 (human β3-AR; TF 0.025 μg/well, 116 fmol/mg, listed as mirabegron): 26.9 nM
Iso50 (human β3-AR; TF 0.05 μg/well, 222 fmol/mg): 4.45 ± 0.66 nM
Intrinsic activity β3-AR (human β3-AR; [5]): (0.84 ± 0.04)
Intrinsic activity β3-AR (human β3-AR; TF 0.05 μg/well, isoproterenol max = 1.00, listed as mirabegron): 0.84
Iso50 (human β3-AR; [6]): 1.32 ± 0.26 nM
Intrinsic activity β3-AR (human β3-AR; [12]): (0.94 ± 0.02)
Intrinsic activity β3-AR (human β3-AR; TF 0.1 μg/well, maximal response of isoproterenol = 1.00, listed as mirabegron): 0.94
β3-AR selectivity vs β1-AR (human β3-AR; TF 0.1 μg/well): 517
β3-AR selectivity vs β2-AR (human β3-AR; TF 0.1 μg/well): 496
cAMP activity at Cmax,u (human β3-AR): about 53%
cAMP activity at Cmin,u (human β3-AR): about 27%

Cc1cc(OCC(=O)O)c(C)cc1CCN[C@@H](C)[C@H](O)c1ccc(O)cc1 [Ritobegron, ritobegron]
EC50 (human β2-AR; [7]): 2.27 ± 1.34 µM
EC50 (human β2-AR; EC50 β2-AR, TF 0.025 μg/well): > 10 µM
EC50 (human β2-AR; EC50 β2-AR, TF 0.05 μg/well): > 10 µM
Intrinsic activity β2-AR (human β2-AR; TF 0.05 μg/well): (0.32 ± 0.05)
EC50 (human β1-AR; [8]): > 10 µM
Intrinsic activity β1-AR (human β1-AR; [9]): (0.04 ± 0.01)
EC50 (human β1-AR; [10]): > 10 µM
Intrinsic activity β1-AR (human β1-AR; [5]): (0.11 ± 0.02)
EC50 (human β1-AR; [11]): > 10 µM
Intrinsic activity β1-AR (human β1-AR; [12]): (0.33 ± 0.03)
EC50 (human β3-AR; [13]): 80.8 ± 12.6 nM
EC50 (human β3-AR; TF 0.025 μg/well): 1520 ± 950 nM
EC50 (human β3-AR; TF 0.05 μg/well): 398 ± 104 nM
Iso50 (human β3-AR; TF 0.025 μg/well, 116 fmol/mg): 943 ± 244 nM
Iso50 (human β3-AR; TF 0.025 μg/well, 116 fmol/mg, listed as ritobegron): 943 nM
Iso50 (human β3-AR; TF 0.05 μg/well, 222 fmol/mg): 303 ± 60.7 nM
Intrinsic activity β3-AR (human β3-AR; [5]): (1.00 ± 0.07)
Intrinsic activity β3-AR (human β3-AR; TF 0.05 μg/well, isoproterenol max = 1.00, listed as ritobegron): 1.00
Iso50 (human β3-AR; [6]): 81.5 ± 15.4 nM
Intrinsic activity β3-AR (human β3-AR; [12]): (0.99 ± 0.02)
Intrinsic activity β3-AR (human β3-AR; TF 0.1 μg/well, maximal response of isoproterenol = 1.00, listed as ritobegron): 0.99
β3-AR selectivity vs β1-AR (human β3-AR; TF 0.1 μg/well): >124
β3-AR selectivity vs β2-AR (human β3-AR; TF 0.1 μg/well): 28.1

O=C(O)c1cccc(-c2cccc(NCCNC[C@H](O)c3cccc(Cl)c3)c2)c1 [Solabegron, solabegron]
EC50 (human β2-AR; [7]): > 10 µM
EC50 (human β2-AR; EC50 β2-AR, TF 0.025 μg/well): > 10 µM
EC50 (human β2-AR; EC50 β2-AR, TF 0.05 μg/well): > 10 µM
Intrinsic activity β2-AR (human β2-AR; TF 0.05 μg/well): (0.20 ± 0.02)
EC50 (human β1-AR; [8]): 0.588 ± 0.105 µM
Intrinsic activity β1-AR (human β1-AR; [9]): (0.25 ± 0.06)
EC50 (human β1-AR; [10]): > 10 µM
Intrinsic activity β1-AR (human β1-AR; [5]): (0.28 ± 0.04)
EC50 (human β1-AR; [11]): > 10 µM
Intrinsic activity β1-AR (human β1-AR; [12]): (0.60 ± 0.04)
EC50 (human β3-AR; [13]): 27.6 ± 9.08 nM
EC50 (human β3-AR; TF 0.025 μg/well): 83.6 ± 29 nM
EC50 (human β3-AR; TF 0.05 μg/well): 85.1 ± 5.84 nM
Iso50 (human β3-AR; TF 0.025 μg/well, 116 fmol/mg): 252 ± 78.4 nM
Iso50 (human β3-AR; TF 0.025 μg/well, 116 fmol/mg, listed as solabegron): 252 nM
Iso50 (human β3-AR; TF 0.05 μg/well, 222 fmol/mg): 119 ± 27.1 nM
Intrinsic activity β3-AR (human β3-AR; [5]): (0.91 ± 0.10)
Intrinsic activity β3-AR (human β3-AR; TF 0.05 μg/well, isoproterenol max = 1.00, listed as solabegron): 0.91
Iso50 (human β3-AR; [6]): 31.0 ± 10.8 nM
Intrinsic activity β3-AR (human β3-AR; [12]): (0.96 ± 0.03)
Intrinsic activity β3-AR (human β3-AR; TF 0.1 μg/well, maximal response of isoproterenol = 1.00, listed as solabegron): 0.96
β3-AR selectivity vs β1-AR (human β3-AR; TF 0.1 μg/well): 21.3
β3-AR selectivity vs β2-AR (human β3-AR; TF 0.1 μg/well): >362

O=C(Nc1ccc(C[C@@H]2CC[C@H]([C@H](O)c3ccccc3)N2)cc1)[C@@H]1CCc2nccc(=O)n21 [Vibegron]
Cmax,u (unbound maximum plasma concentration) [2]: 56 nM
Cmin,u (unbound minimum plasma concentration) [2]: 14 nM
EC50 (human β2-AR; EC50 in cells expressing β2-ARs, TF 0.1 μg/well): > 10 µM
EC50 (human β2-AR; [7]): > 10 µM
EC50 (human β2-AR; EC50 β2-AR, TF 0.025 μg/well): > 10 µM
EC50 (human β2-AR; EC50 β2-AR, TF 0.05 μg/well): > 10 µM
Intrinsic activity β2-AR (human β2-AR; TF 0.05 μg/well): (0.09 ± 0.03)
β2-AR agonist activity (human β2-AR; lowest β2-AR density 108 fmol/mg): no β2-AR agonist activity
EC50 (human β1-AR; [8]): > 10 µM
Intrinsic activity β1-AR (human β1-AR; [9]): (0.00 ± 0.00)
EC50 (human β1-AR; [10]): > 10 µM
Intrinsic activity β1-AR (human β1-AR; [5]): (0.02 ± 0.01)
EC50 (human β1-AR; [11]): > 10 µM
Intrinsic activity β1-AR (human β1-AR; [12]): (0.10 ± 0.01)
EC50 (human β1-AR; TF 0.1 μg/well, read-out: EC50 in cells expressing β1-ARs): > 10 µM
β1-AR agonist activity (human β1-AR; cells TF 0.05 μg/well (245 fmol/mg)): no β1-AR agonist activity
attenuation of efficacy ([3]; 50 mg and 100 mg): not observed
vital signs (systolic blood pressure, diastolic blood pressure, and pulse) ([3]; supratherapeutic dose 100 mg): did not affect vital signs
IA (Emax) (β3-AR): 99.2%
incidence of increased blood pressure and hypertension [4]: does not affect the incidence of increased blood pressure and hypertension
EC50 (human β3-AR; [13]): 1.26 ± 0.4 nM
EC50 (human β3-AR; TF 0.025 μg/well): 12.5 ± 2.41 nM
EC50 (human β3-AR; TF 0.05 μg/well): 3.83 ± 0.93 nM
Iso50 (human β3-AR; TF 0.025 μg/well, 116 fmol/mg): 22.5 ± 14.5 nM
Iso50 (human β3-AR; TF 0.025 μg/well, 116 fmol/mg, listed as vibegron): 22.5 nM
Iso50 (human β3-AR; TF 0.05 μg/well, 222 fmol/mg): 3.74 ± 0.73 nM
Intrinsic activity β3-AR (human β3-AR; [5]): (1.00 ± 0.03)
Intrinsic activity β3-AR (human β3-AR; TF 0.05 μg/well, isoproterenol max = 1.00, listed as vibegron): 1.00
β3-AR selectivity, higher than for β1-ARs (human β3-AR; TF 0.1 μg/well): > 7937 fold
β3-AR selectivity, higher than for β2-ARs (human β3-AR; TF 0.1 μg/well): > 7937 fold
Iso50 (human β3-AR; [6]): 1.26 ± 0.29 nM
Intrinsic activity β3-AR (human β3-AR; [12]): (0.93 ± 0.05)
Intrinsic activity β3-AR (human β3-AR; TF 0.1 μg/well, maximal response of isoproterenol = 1.00, listed as vibegron): 0.93
β3-AR selectivity vs β1-AR (human β3-AR; TF 0.1 μg/well): >7937
β3-AR selectivity vs β2-AR (human β3-AR; TF 0.1 μg/well): >7937
cAMP activity at Cmax,u (human β3-AR): about 82%
cAMP activity at Cmin,u (human β3-AR): ~59%

CC(Cc1ccc(O)cc1)NCC(O)c1cc(O)cc(O)c1 (centres unmarked) [fenoterol]
attenuation of bladder relaxant effect after pretreatment, washout and fresh addition [1]: marked attenuation of the bladder relaxant effect
